According to patent publication US20260355318A1, “MOLECULAR MACHINES FOR TREATMENT OF CANCER, FUNGAL INFECTIONS, OR BACTERIAL INFECTIONS” (priority 2022, published 2026):

Assays:
[1] = tested on: mature C. albicans biofilms; test: Biofilm biomass (crystal violet); type: cell-based, Candida albicans; conditions: 2×, 4×MIC, vs DMSO, MMs with 87.6 J cm^−2 405-nm light
Description: (§1) The antibiofilm activity of MMs was investigated using 96-well microtiter plates with flat-bottom wells as a closed static biofilm reactor. This setup is reliable, inexpensive, easy to use and obtain, and requires no additional equipment (Pierce et al., 2010). Two parameters were used to evaluate antibiofilm activity: biofilm biomass and biofilm viability. Biofilm biomass was determined using the crystal violet method (Martins et al, 2010), a simple, inexpensive, and readily accessible method for determining biofilm biomass. However, because crystal violet binds both live and dead cells as well as extracellular polymeric substances, it cannot be used alone to reliably assess antibiofilm activity. To overcome this limitation, the XTT assay was used to evaluate biofilm viability (Nett et al., 2011). This assay is based on the reduction of the tetrazolium salt XTT to formazan by dehydrogenases in the mitochondrial electron transport chain of living cells. The resulting formazan can be easily detected by measuring the absorbance at 490 nm, which is proportional to the number of living cells, providing a reliable quantitative measurement of metabolically active cells in biofilms (Taff et al., 2012). […]
Biofilm biomass was determined by the crystal violet method, as previously described (Martins et al., 2010). […]

C. albicans [2] = test: MIC, visible-light-activated MMs and conventional antifungals, C. albicans; type: cell-based, Candida albicans (ATCC 18804)
Description: C. albicans cell suspensions were incubated with increasing concentrations of MMs and irradiated with 405-nm light at 292 mW cm^−2 for 5 min (87.6 J cm^−2). The minimum inhibitory concentration (MIC) was defined as the MM concentration resulting in no visible fungal growth after irradiation with 87.6 J cm^−2 of 405-nm light.
(§2) Cell suspensions for susceptibility testing (MMs and conventional antifungals) were prepared per the Clinical & Laboratory Standards Institute (CLSI) guidelines (CLSI, 2017; CLSI, 2008). Before testing, yeasts (C. albicans and S. cerevisiae) were sub-cultured in Sabouraud Dextrose Agar-Emmons Modification (SDAE) plates and grown for 24 h at 30 °C. Five independent colonies from 24-h-old plates were collected and diluted to ~10^4 colony forming units (CFU) per mL in sterile saline (CLSI, 2017). Molds (A. fumigatus and the dermatophytes T. rubrum and M. gypseum) were sub-cultured on SDAE medium and incubated for 7 days at 28 °C. Conidia were recovered by covering the plates with sterile distilled water and scraping the colonies. The suspensions were filtered (8-μm pore size) and diluted in saline to ~10^4 CFU mL^−1 (Santos and Hamdan, 2005).
(§3) After a 30-min incubation in the dark, cell suspensions were transferred to small, sterilized glass beakers, which were then placed in a water bath. Each sample was irradiated with 405-nm light at 292 mW cm^−2 for 5 min, corresponding to a light dose of 87.6 J cm^−2, determined using an S415C thermal power sensor (Thorlabs, Newton, MA, USA). During irradiation, the cell suspensions were agitated with a small metal stirrer. A thermocouple probe (model SC-TT-K-30-36-PP; Omega Engineering, Inc., Stanford, CT, USA) was used to monitor the temperature during irradiation. Irradiated cell suspensions were inoculated in 3-(N-morpholino) propanesulfonic acid (MOPS)-buffered Roswell Park Memorial Institute Medium (RPMI) 1640 (pH 7.0). Tubes were incubated at 30 ° C for 48 h (yeasts) and 28 ° C for 7 days (molds). The antifungal or MM concentration resulting in no visible growth was defined as the minimum inhibitory concentration (MIC) (CLSI, 2017; CLSI, 2008). Similarly prepared cell suspensions were used to determine the MIC of conventional antifungals.

A. fumigatus [3] = test: MIC, MMs and antifungals, A. fumigatus; type: cell-based, Aspergillus fumigatus (ATCC 1022); conditions: A. fumigatus, broth microdilution
Description: as §2
After a 30-min incubation in the dark, cell suspensions were transferred to small, sterilized glass beakers, which were then placed in a water bath. Each sample was irradiated with 405-nm light at 292 mW cm^−2 for 5 min, corresponding to a light dose of 87.6 J cm^−2, determined using an S415C thermal power sensor (Thorlabs, Newton, MA, USA). During irradiation, the cell suspensions were agitated with a small metal stirrer. […]

[4] = tested on: mature C. albicans biofilms; test: Biofilm viability (XTT assay); type: cell-based, Candida albicans; conditions: 2×, 4×MIC, vs DMSO, MMs with 87.6 J cm^−2 405-nm light
Description: as §1, with “This assay is based on the reduction of the tetrazolium salt XTT to formazan by dehydrogenases in the mitochondrial electron transport chain of living cells.” left out
Biofilm viability was determined using an XTT cell viability assay kit (Biotium, Hayward, CA, USA) per the manufacturer's instructions. […] Normalized absorbance values were obtained by subtracting the background from the signal.

C. albicans [5] = test: Time-kill assay, C. albicans; type: cell-based, Candida albicans
Description: (§4) For yeasts, five independent colonies were collected from 24-h SDAE plates, inoculated into yeast peptone with 2% dextrose (YPD), and grown for 24 h at 30 °C. Cells were then sub-cultured in fresh medium and grown for ~9 h. Afterward, the cells were centrifuged (5,000 ×g, 5 min), washed, and resuspended in phosphate-buffered saline (PBS) to ~10^6 CFU mL^−1. For A. fumigatus, conidia suspensions (~10^4 CFU mL^−1) were prepared in PBS as previously described.
(§5) Amphotericin B (AMB, 4×MIC) controls were prepared likewise, but light was omitted. Aliquots were collected in 1-min increments for up to 10 min, serially diluted in PBS, and plated on SDAE medium. Plates were incubated at 30 ° C for 48 h with confirmation after 72 h (yeasts) or at 28 ° C for 7 days with confirmation after 14 days (A. fumigatus), after which the CFU number was determined. The results were expressed as the logarithm of base 10 of the ratio between the CFU at each time point and the CFU at time 0. The detection limit of the method was ~1 log10 CFU mL^−1.

S. cerevisiae [6] = test: MIC, MMs and antifungals, S. cerevisiae; type: cell-based, Saccharomyces cerevisiae (ATCC 13007); conditions: broth microdilution
Description: as §2, §3

[7] = tested on: C. albicans plasma membrane; test: Plasma membrane fluidity, DPH fluorescence; type: cell-based, Candida albicans
Description: The effects of MMs on C. albicans membrane dynamics were evaluated using DPH fluorescence (Kim et al., 2009). […] AMB-treated cells were used as controls. Samples were fixed with 0.37% formaldehyde and labeled with 0.6 mM DPH, as previously described (Kim et al., 2009). […] DPH fluorescence of untreated samples minus background was defined as 100% and used to calculate changes in treated samples.

A. fumigatus [8] = test: Time-kill assay, A. fumigatus; type: cell-based, Aspergillus fumigatus; conditions: 2×MIC, 405-nm light at 292 mW cm^−2
Description: as §4, §5

S. cerevisiae [9] = test: Time-kill assay, S. cerevisiae; type: cell-based, Saccharomyces cerevisiae; conditions: 2×MIC, 405-nm light at 292 mW cm^−2
Description: as §4, §5

C. albicans [10] = test: Development of resistance / cross-resistance in C. albicans (serial passage, single-step); type: cell-based; conditions: Candida albicans, read-out: MIC of MM in antifungal-resistant C. albicans
Description: FIG. 3: Evaluation of the development of resistance to MMs in C. albicans. For the stepwise resistance assessment by serial passage (left), C. albicans cell suspensions were treated with increasing concentrations (0.3125-160 μM) of different MMs (8 mM stock in DMSO) and then irradiated with […] light (87.6 J cm^−2). The irradiated cell suspensions were then inoculated in MOPS-buffered RPMI 1640 (pH 7.0, Sigma, MO, USA), and the tubes were incubated at 30 ° C for 48 h. […] Cells able to grow at 0.5×MIC of each MM were collected by centrifugation (5,000×g, 5 min), resuspended and re-challenged with a range of MM concentrations and irradiated with 405 nm light (87.6 J cm^−2). The procedure was repeated for a total of 20 consecutive cycles. […] Irradiated cells were then inoculated in YPD and incubated at 30 °C. However, MM-resistant colonies could not be recovered even after 14 days of incubation. Created with Biorender.com.
A modified version of the broth microdilution serial passage method was used to assess the development of resistance to visible-light-activated MMs in C. albicans (Kapoor et al., 2019). C. albicans cell suspensions were prepared and irradiated as previously described for the determination of MM MIC. Cells were then inoculated into buffered RPMI 1640 and incubated at 30 ° C for 48 h. Cells able to grow at 0.5×MIC of MM were centrifuged (5,000×g, 5 min), resuspended, rechallenged with different MM concentrations, and irradiated with 405-nm light (87.6 J cm^−2). The procedure was repeated for 20 consecutive cycles. The antifungals AMB, CAS, and FLC were processed similarly, except that light was omitted, and used as controls.

superoxide dismutase = test: Superoxide dismutase (SOD) activity; type: cell-based, Candida albicans; conditions: 0.5×MIC, p<0.05
Description: (§6) Superoxide dismutase (SOD) activity was determined using a Superoxide Dismutase Assay Kit (Caymanchem, MI, USA) per the distributor's instructions. Lipid peroxidation was determined using a TBARS assay kit (TCA method) (Caymanchem, MI, USA) per the distributor's instructions. SOD activity and MDA levels were normalized by protein content determined by the Pierce assay (Pierce™ BCA Protein Assay Kit, Thermo Fisher Scientific, MA, USA).

[11] = Estimated rotation rate after light activation; conditions: based on known motors with similar core skeletons
C. albicans [12] = test: Lipid peroxidation (TBARS, MDA); type: cell-based, Candida albicans; conditions: 2×MIC
Description: as §6

C. albicans [13] = test: Influence of BAPTA-AM on MM-induced killing and intracellular calcium; type: cell-based, Candida albicans; conditions: MM 1 2×MIC
Description: C. albicans cells were grown as described above and resuspended in HHBS (~10^6 CFU mL^−1). The cation chelator 1,2-bis(2-aminophenoxy) ethane-N,N,N′,N′-tetraacetic acid acetoxymethyl ester (BAPTA-AM) was then added (0.25-1 mM, final concentration) (Li et al., 2020). Unamended cells were used as controls. After a 30-min dark incubation at 30 ° C, the cells were centrifuged (5,000×g, 5 min), washed, and resuspended in HHBS. […] After 30 min, the cells were irradiated and processed as described for the time-kill experiments.

Structure (SMILES): C[C@@H]1[C@H](O)[C@@H](C)/C=C/C=C/C=C/C=C/C=C/C=C/C=C/[C@H](O[C@@H]2O[C@H](C)[C@@H](O)[C@H](N)[C@@H]2O)C[C@@H]2O[C@](O)(C[C@@H](O)C[C@@H](O)[C@H](O)CC[C@@H](O)C[C@@H](O)CC(=O)O[C@H]1C)C[C@H](O)[C@H]2C(=O)O [Amphotericin B (AMB), Amphotericin B]
- reduction of biofilm biomass [1]: 6%
- MIC of antifungal agent (C. albicans [2]; C. albicans, broth microdilution): 1 mg/L
- MIC of antifungal agent (A. fumigatus [3]): 2 mg/L
- reduction of biofilm viability [4]: 20%
- effect on fungal cell number (C. albicans [5]; time-kill, FIG. 1D / FIG. 2, AMB at 4×MIC): non-significant reduction in cell numbers
- MIC of antifungal agent (S. cerevisiae [6]): 0.5 mg/L
- DPH fluorescence [7]: reduces DPH fluorescence

Structure (SMILES): C[C@@H]1Cc2ccc3ccccc3c2/C1=C1\c2ccccc2Sc2cc(NCCN3CCNCC3)ccc21 (mixture of isomers) [MM 7, 9-(2-methyl-2,3-dihydro-1H-cyclopenta[a]naphthalen-1-ylidene)-N-(2-(piperazin-1-yl)ethyl)-9H-thioxanthen-3-amine]
- time to reduce cell numbers to limit of detection (A. fumigatus [8]): 9 min
- MIC (C. albicans [2]; Candida albicans, read-out: MIC of MM): ≤ 5 µM
- time to population eradication (S. cerevisiae [9]): 5 min
- MIC (C. albicans [10]): 5 µM
- time to reduce cell numbers to limit of detection (C. albicans [5]; C. albicans, 2×MIC, 405-nm light at 292 mW cm^−2): 9 min
- superoxide dismutase activity (superoxide dismutase): increased superoxide dismutase activity
- estimated rotation rate after light activation [11]: 3 MHz
- lipid peroxidation product levels (C. albicans [12]): increased levels of the lipid peroxidation product malonaldehyde

Structure (SMILES): CC(=O)OCOC(=O)CN(CC(=O)OCOC(C)=O)c1ccccc1OCCOc1ccccc1N(CC(=O)OCOC(C)=O)CC(=O)OCOC(C)=O [BAPTA-AM, 1,2-bis(2-aminophenoxy) ethane-N,N,N′,N′-tetraacetic acid acetoxymethyl ester]
- effect of calcium chelator on MM-induced cell death (C. albicans [13]): Mitigation of MM-induced cell death
